Measurements taken from patent US20160281089A1, “PREVENTION OF VIRAL INFECTIVITY” (priority 2005, published 2016).

Columns and labels:
SFFV [1] = test: Early i.v. therapy 2, 6 and 10 hours after SFFV infection of mice; type: in vivo; conditions: i.v. treatment 2, 6 and 10 hours after infection; for establishment of SFFV infection (PCR of blood samples): whole period tested
Protocol: In another experimental setting we assessed the effect of an i.v. therapy early after infection. We infected mice with SFFV and treated them 2, 6, and 10 hours later with ODN M, asPPT or PBS.
c. Mice infected with SFFV (4×10^2 FFU) i.v. received triple-treatments with ODNs at 2, 6 and 10 hours post-infection. Real-time RT-PCR analysis (graph) and RT-PCR (gel analysis) was performed with RNA from plasma beginning at day 5 and at the days indicated.

HIV virions [2] = test: ODN-mediated cleavage of viral RNA in intact HIV virions (real-time PCR, RT-PCR, agarose gel); type: biochemical; conditions: 0.5 μM ODN, 6 hours; for amount of undigested viral RNA (real-time PCR, primers covering PPT region): intact HIV virions, RPMI medium
HIV virions [3] = test: Infectivity of ODN-pre-incubated HIV virions in C81-66/45 cells; type: cell-based
Protocol: As a next step we investigated the antiviral effect of ODNs by testing the infectivity of treated virions in cell culture studies. We used ODN A, ODN T, as PPT and ODN CO. 2×10^5 C81-66/45 cells were infected with virions pre-incubated with different ODNs at 0.01 MOI for 1, 2 or 4 hours prior to infection. RNA was extracted from infected cells and HIV replication was analysed by real-time PCR 3 days post-infection.
To test the specificity of suppression of viral replication, the effect of ODN A on the infectivity of virions was compared with control ODNs. Virions were pre-treated with the ODNs and HIV replication in infected cells was analysed by real-time PCR, 5 days (FIG. 6A) or 20 days post-infection (FIG. 6B) and by measuring p24 production in the supernatant of the infected cells (FIG. 6C).
(A) HIV virions were incubated with 0.5 μM of ODNs for 1, 2 or 4 hours. C81-66/45 cells were infected with pre-incubated virions, at 0.01 MOI. RNA was extracted from infected cells and HIV replication was analysed by real-time PCR, 3 days post-infection (p.i.).
(B) The same experiment as in (A) was performed with ODN T, ODN CO, asPPT and ODN A pre-treated virions.
(D) C81-66145 cells were infected with virions pre-incubated with 0.5 or 5 μM of ODNs for 4 h, at an MOI of 1. RNA was extracted from infected cells and HIV replication was analysed by real-time PCR, 3 days post-infection.
(E) C81-66/45 cells were infected with virions pre-incubated with ODN A and ODN Sc for 4 h, at an MOI of 0.01. RNA was extracted from infected cells and HIV replication was analysed by real-time PCR, 1 h and 24 h post-infection. (F) The same experiment as in (E) was performed except for using ODN T, ODN B and ODN A, 1 hour post-infection.
C81-66/45 cells were infected with virions pre-incubated with ODN A, ODN T, ODN CO or as PPT for 4 h, at MOI of 0.01. RNA was extracted from infected cells and HIV replication was analysed by real-time PCR, 5 days p.i. (A), and 20 days p.i. (B); by measuring p24 production in the medium of the infected cells (C) or by RT-PCR, 11 days p.i. (D).

SFFV [4] = test: Survival of SFFV-infected DBA/2 mice treated with ODN M at times 0 and 1 hour; type: in vivo; conditions: ODN M 1 mg at 0 and 1 hour, i.p.
Protocol: We also monitored survival of SFFV-infected mice treated with and without ODN M at times 0 and 1 hour, in this case DBA/2 mice and by i.p. route (FIG. 11b).
Five mice each received 300 μl SFFV (1:100) i.p. supplemented with or without ODN M and 1 h later a second dose of ODN M (1 mg each). Survival was monitored until day 68. The spleen weights at death are indicated as numbers on the graph.

SFFV [5] = test: NIH 3T3 cells infected with SFFV for 2 h and then treated; type: cell-based; conditions: treatment 2 h after infection, three concentrations, no carrier, three days post-infection
Protocol: In the next experiment NIH 3T3 cells were infected with SFFV for 2 h and then treated with three different concentrations each of ODN M, asPPT, and three different siRNAs.
c. NIH-3T3 cells were infected with SFFV for 2 hours and then treated with three decreasing concentrations of ODN M, asPPT and three different PPT-specific siRNAs. RNA was isolated from supernatants three days post-infection and analyzed by real time RT-PCR.

RT/RNaseH = RT/RNaseH (Human immunodeficiency virus type 1 group M subtype B, UniProt P04585); conditions: high concentrations; previously shown (ref. 12); cited from earlier work
FUGW virus = test: Intravaginal treatment of FUGW virus with ODN A, lavage, real-time PCR; type: in vivo, C57BL/6 mice; conditions: 25 μM ODN, 4 h in the vagina
From the text: In order to analyse the efficiency of the ODN A in the vagina, we used a recombinant retrovirus vector (FUGW) and placed the virus with and without ODN A into the vagina. We recover the virus by lavage and tested the RNA copies by real-time PCR. […] Two different virus concentration were used. The effect can be approved due by adaptation to mucosal condition of the vagina.
The FUGW virus was used, which is a recombinant retrovirus on the basis of HIV but with safety properties. It contains a PPT identical to HIV. The virus was prepared as described (Lois C., Hong E. J., Pease S., Brown E. J. and Baltimore D. (2002). “Germline Transmission and Tissue-Specific Expression of Transgenes Delivered by Lentiviral Vectors”, Science 295, 868-872).
The incubation was followed by a lavage of the vagina. Then lavage samples from the vagina were collected for RNA extraction using QIAamp viral RNA kit. RNA were eluted in 30 μl elution buffer. For reverse transcription, 2 μl RNA were used in 12.5 μl volume and 3 μl of the cDNA were used for real time PCR. Virus reduction is dependent on the ratio of ODN A to virus titer and the reduction is 2 fold for 10^4 IU.

[6] = virions pre-incubated 4 hours with 0.5 μM ODN, 0.01 MOI, 3 days post-infection

Sequence | health of infected mice (spleen enlargement in mock-treated) (SFFV [1]) | establishment of SFFV infection (PCR of blood samples) (SFFV [1]) | amount of undigested viral RNA (real-time PCR, primers covering PPT region) (HIV virions [2]) | HIV replication in infected cells (real-time PCR) (HIV virions [3]; [6]) | survival time (SFFV [4]) | number of treated mice with prolonged survival (SFFV [4]; DBA/2 mice) | survival of the surviving mice (SFFV [4]; untreated mice died after 20 to 30 days) | antiviral effect, SFFV RNA in supernatants (SFFV [5]) | concentration at which ODN inhibits the RT/RNaseH activity in vitro (RT/RNaseH) [µM] | cDNA production in virions (PCR with ODN A- and viral cDNA-specific primers) (HIV virions [2]; virions containing monodeoxynucleotides) | total viral RNA by agarose gel electrophoresis (HIV virions [2]; intact virions, compared to control ODNs) | reduction of virus RNA copies / titer recovered by lavage (FUGW virus) | reduction of virus RNA copies / titer recovered by lavage (FUGW virus; listed as ODNA A) | virus reduction (FUGW virus; 10^4 IU FUGW-virus) [fold] | HIV replication in infected cells (real-time PCR) (HIV virions [3]; ODN-pre-treated virions, MOI of 1, 3 days post-infection) | binding/uptake of pre-treated virions by host cells (HIV virions [3]; pre-incubation 4 hours, HIV RNA in infected cells 1 hour post-infection) | time without sign of virus replication after infection (HIV virions [3]; virions pre-incubated 4 h, MOI of 0.01, real-time PCR, p24, RT-PCR, syncytia) | viral RNA in infected cells (HIV virions [3]; virions pre-treated 4 h, 24 hours after infection) | virion uptake by cells, less efficient compared to ODN Sc-treated virions (HIV virions [3]; virions pre-treated 4 hours, HIV RNA in infected cells 1 hour post-infection) [%]
CCCTTCCAGTCCCCCCTTTTCTTTT (chemistry not given here) [asPPT, single-stranded antisense PPT of HIV, lacks the passenger strand and the linker] | healthy | prevented the establishment of the SFFV-infection | less efficient cleavage of the viral RNA | low but detectable levels | – | – | – | – | – | – | – | – | – | – | – | – | – | – | –
TCTTTTTGGGGGGTTTGTTTGTTTTTTCTTTCATTCCCCCCTTTTTCT (chemistry not given here) [ODN M, 22-mer antisense and 22-mer second strand connected by T4, targeted to extended PPT of SFFV] | healthy | prevented the establishment of the SFFV-infection | – | – | almost doubled | Two out of five | more than 60 days | slightly superior to the asPPT but much stronger compared to siRNA | – | – | – | – | – | – | – | – | – | – | –
TTTTCTTTTGGGGGGTTTGGTTGGGTTTTCCCTTCCAGTCCCCCCTTTTCTTTT (phosphorothioate linkages, further chemistry not given here) [ODN A, 25 mer antisense and 25 mer passenger strand connected by T4, phosphorothioated at each end and in linker, targeted to extended PPT of HIV-1] | – | – | significant decrease in the amount of amplification product | complete suppression of viral replication | – | – | – | – | ≥ 1 | led to cDNA production starting with ODN A | significant reduction of the viral RNA | twofold | factor of two | 2 | only partial suppression of HIV replication | did not significantly interfere with binding | at least 20 days | completely degraded | 14
